US20020183327A1, “Bicyclic imidazo-3-yl-amine derivatives substituted on the 6-membered ring” (GRUENENTHAL GMBH., priority 1999, published 2002)

System: α2-subtype of the human α-adrenergic receptor
Experiment: SPA assay, affinity for the α2-subtype of the human α-adrenergic receptor
Assay type: binding
Conditions: at a concentration of 10 μM
Description: The affinity for the α2-subtype of the human α-adrenergic receptor was determined by means of a SPA assay conventionally used for high throughput screening as described in John P. Devlin, High Throughput Screening, Marcel Dekker Inc. 1997, pp. 307 to 316. This literature is introduced here as a reference and thus forms part of the disclosure. At a concentration of 10 μM, the following affinities for the listed examples were determined: […]

Structure (SMILES)	α2-affinity, 10 μM [%]
[C-]#[N+]CCCCCCNc1c(C2CCCCC2)nc2cccc(C)n12 [Example 16]	67
Cc1ccc2nc(C)c(NC(C)(C)CC(C)(C)C)n2c1 [Example 17, (2,6-dimethylimidazo[1,2-a]pyridin-3-yl)-(1,1,3,3-tetramethylbutyl)-amine]	65
Cc1ccn2c(NC3CCCCC3)c(C)nc2c1 [Example 18, cyclohexyl-(2,7-dimethylimidazo[1,2-a]pyridin-3-yl)-amine]	74
Cc1cc(C)n2c(NC3CCCCC3)c(C)nc2c1 [Example 19, cyclohexyl-(2,5,7-trimethylimidazo[1,2-a]pyridin-3-yl)-amine]	81
[C-]#[N+]CCCCCCNc1c(-c2ccc(OC)c(OC)c2)nc2ccc(C)cn12 [Example 20, [2-(3,4-dimethoxyphenyl)-6-methylimidazo[1,2-a]pyridin-3-yl]-(6-isocyanohexyl)-amine]	85
Cc1ccn2c(NC(C)(C)CC(C)(C)C)c(C)nc2c1 [Example 21, (2,7-dimethylimidazo[1,2-a]pyridin-3-yl)-(1,1,3,3-tetramethylbutyl)-amine]	109
Cc1nc2c(C)cccn2c1NC(C)(C)CC(C)(C)C [Example 22, (2,8-dimethyl-imidazo[1,2-a]pyridin-3-yl)-(1,1,3,3-tetramethylbutyl)-amine]	69
Cc1cc(C)n2c(NC(C)(C)CC(C)(C)C)c(C)nc2c1 [Example 23, (1,1,3,3-tetramethylbutyl)-(2,5,7-trimethylimidazo[1,2-a]pyridin-3-yl)-amine]	97
[C-]#[N+]CCCCCCNc1c(-c2ccc(OC)c(OC)c2)nc2cc(C)ccn12 [Example 24, [2-(3,4-dimethoxyphenyl)-7-methylimidazo[1,2-a]pyridin-3-yl]-(6-isocyanohexyl)-amine]	75
[C-]#[N+]CCCCCCNc1c(-c2ccccc2OC)nc2ccc(C)cn12 [Example 25, (6-isocyanohexyl)-[2-(2-methoxyphenyl)-6-methyl-imidazo[1,2-a]pyridin-3-yl]-amine]	51
FC(F)(F)c1ccc2nc(-c3ccco3)c(NC3CCCCC3)n2c1 [Example 26, cyclohexyl-(2-furan-2-yl-6-trifluoromethylimidazo[1,2-a]pyridin-3-yl)-amine]	70
Cc1nc2c(OCc3ccccc3)cccn2c1NC(C)(C)CC(C)(C)C [Example 29, (8-benzyloxy-2-methylimidazo[1,2-a]pyridin-3-yl)-(1,1,3,3-tetramethylbutyl)-amine]	100
COC(=O)CNc1c(C2CCCCC2)nc2c(OCc3ccccc3)cccn12 [Example 30, (8-benzyloxy-2-cyclohexylimidazo[1,2-a]pyridin-3-ylamino)-acetic acid methyl ester]	60
COC(=O)CNc1c(C)nc2c(OCc3ccccc3)cccn12 [Example 31, (8-benzyloxy-2-methylimidazo[1,2-a]pyridin-3-ylamino)-acetic acid methyl ester]	61
CCCCNc1c(C2CCCCC2)nc2cccc(CCC)n12 [Example 32, Butyl-(2-cyclohexyl-5-propylimidazo[1,2-a]pyridin-3-yl)-amine]	61
CC(=O)N(c1c(-c2ccco2)nc2c(Cl)cc(Cl)cn12)C1CCCCC1 [Example 33, N-cylcohexyl-N-(6,8-dichloro-2-furan-2-yl-imidazo[1,2-a]pyridin-3-yl)-acetamide]	73
CC(=O)N(c1c(-c2ccco2)nc2ccc(C(F)(F)F)cn12)C1CCCCC1 [Example 34, N-cylcohexyl-N-(2-furan-2-yl-6-trifluoromethylimidazo[1,2-a]pyridin-3-yl)-acetamide]	72
CC(=O)N(c1c(C2CCCCC2)nc2c(OCc3ccccc3)cccn12)C1CCCCC1 [Example 35, N-(8-benzyloxy-2-cyclohexylimidazo[1,2-a]pyridin-3-yl)-N-cyclohexyl-acetamide]	75
